Measured values from patent US20230333019A1, “TWO-PHOTON FLUORESCENT PROBES FOR SIMULTANEOUSLY DETECTING CALCIUM IONS IN ORGANELLES AND LYSOSOMAL PROTONS” (Korea University Research and Business Foundation, priority 2022, published 2023).
Read-outs that look alike come from different tables or passages of the source. Marks after values point to notes of the source that are not given here.

Columns and labels:
[1] = Metal ion selectivity, relative fluorescence intensity in MOPS buffer; details: for Response to Zn2+ and Mn2+: 100 μM; for Response to Zn2+ and Mn2+ / Response to Mg2+, Fe2+, Cu2+, Co2+: MOPS pH 7.2; for Response to Mg2+, Fe2+, Cu2+, Co2+: Mg2+ 2 mM, Co2+ 100 μM; for Selectivity for Ca2+: versus competing metal ions
Protocol: FIG. 8 is graphs showing relative fluorescence intensities of (a) BCa-1, (b) BCa-2mito, or (c) BCa−3°mem in the presence of 2 mM Mg^2+ or 100 μM Zn^2+, Mn^2+, Fe^2+, Cu^2+, or Co^2+ (black bars) and according to subsequent addition of 100 μM Ca^2+ (red bars) in a MOPS buffer (30 mM 3[N-morpholino]propanesulfonic acid, 100 mM KCl, pH 7.2). At this time, excitation wavelengths are (a) 363 nm, (b) 355 nm, and (c) 350 nm, respectively.

[2] = Fluorescence quantum yield; assay type: physicochemical
Protocol: Absorption and emission spectra of a two-photon probe (TP probe) were measured using an Agilent 8453 diode array UV-Vis spectrophotometer and a Hitachi fluorescence spectrophotometer F-7000 system using a previously reported method (Chem. Asian J. 2015, 10(10):2240-2249). Fluorescence quantum yield (Φ) was measured by a method used in another study (Anal. Chem. 2011, 83(4):1232-1242) using Coumarin 540A. Two-photon (TP) excitation was implemented using a mode-locked Ti:sapphire laser (Chameleon, 90 MHz, 200 fs; Coherent Inc.).
All of the two-photon probe compounds emitted weak fluorescence at a maximum emission value (4) of 464 to 466 nm and fluorescence quantum yields (0) of 0.027 to 0.063 in CB (10 mM MOPS, 100 mM KCl, pH 7.2). […] The low fluorescence quantum yield (0) values observed with these probes may contribute to efficient photo-induced electron transfer (PeT) from the receptor to the fluorophore (Table 1).

[3] = Fluorescence titration with Ca2+ in calcium calibration buffer (apparent dissociation constant, FEF); assay type: binding; details: for FEF, fluorescence enhancement factor (Fmax-Fmin)/Fmin: one-photon, complexation with Ca2+ in CB
Protocol: (§1) A dissociation constant (Kd) for binding the probe to Ca^2+ was measured using a conventionally known method. Calcium calibration buffers (CBs; 10 mM 3-[N-morpholino]propanesulfonic acid [MOPS], 100 mM KCl, pH 7.2) containing Ca^2+ at concentrations of 0 to 40 μM were prepared using a calcium calibration buffer kit (Biotium, CA, USA). A buffer containing […] or more of Ca^2+ was prepared by adding an appropriate amount of CaCl2 to a MOPS buffer. Probes (BCa-3°mem at a concentration of 0.3 μM and BCa-1 and BCa-2mito at concentrations of 0.1 μM) were added to calcium CB and fluorescence intensity was measured. Each Kd was calculated through a resultant titration curve. In addition, in order to evaluate a fluorescence titration of FHEt-1lyso, the fluorescence intensity was measured by adding FHEt-1lyso probe at a concentration of 0.6 μM in a universal buffer (UB; 0.1 M citric acid, 0.1 M KH2PO4, 0.1 M Na2B4O7, 0.1 M tris[hydroxymethyl]aminomethane, 0.1 M KCl) at pH 4 to 11. The pKa value was calculated through a titration curve.

HeLa cells [4] = assay: TPM detection of Ca2+ in plasma membrane; assay type: cell-based
Protocol: HeLa cells were purchased from the Korean Cell Line Bank (Seoul, Korea). The cells were cultured by a method described in previous studies (Chem. Asian J. 2015, 10(10):2240-2249). Before two days of imaging, HeLa cells (5×10^4/mL) were plated on a confocal glass bottom dish (#200350, SPL Life Sciences, Gyonggi-do, Korea). The cells were washed with an aqueous buffer (pH 7.4), a Hank's balanced salt solution (HBSS; LB003-02, WelGene Inc., Gyeongsangbuk-do, Korea), or a Ringer's solution (RB; 124 mM NaCl, 26 mM NaHCO3, 10 mM d-glucose, 1.3 mM MgSO4, 3 mM KCl, 1.25 mM NaH2PO4) unless otherwise specified. Thereafter, the probe (0.5 to 3 μM) and Pluronic® F-127 (0.03%, Sigma-Aldrich, St. Louis, MO, USA) were added to the cells in one of the three aqueous buffers (1.0 mL). The mixture was cultured (incubated) at 37° C. (BCa-1-AM and BCa-2mito-AM) for 40 minutes or at room temperature (RT; BCa-3mem) for 10 minutes. The cells labeled with the probe were washed 3 times with each corresponding buffer before imaging.
(§2) TP microscopy (TPM) images were obtained using spectral confocal and multiphoton microscopy (Leica TCS SP2; Leica). TPM images of probe-labeled HeLa cells were obtained using a Leica TCS SP2 using a conventional method (Chem. Asian J. 2015, 10(10):2240-2249). Time-dependent changes in TPEF intensity were monitored and measured at intervals of 1.6 to 2.0 seconds in the xyt mode upon excitation at 750 nm. To monitor changes in [Ca^2+ ] in the plasma membrane, the cells were washed successively with RB containing 5, 0.1, and 0 mM of EGTA and then incubated with BCa-3mem (2 μM). The TPEF intensity was measured before and after adding CaCl2 (2 mM) to RB and EGTA (2 mM) in distilled water.
First, whether BCa-3mem may detect Ca^2+ in the plasma membrane was evaluated.

[5] = Two-photon action cross-section (Φδ); assay type: physicochemical; details: for Φδmax, maximum TP action cross-section: 750 nm, excess Ca2+ (BCa probes) or pH 4.3 (FHEt-1lyso), error ±15%; for Φδ values: absence of Ca2+ (BCa-3°mem) / pH 11 (FHEt-1lyso)
Protocol: (§3) Φδ and Φδeff for the probes were evaluated using the fluorescence method as reported in other studies (Chem. Asian J. 2015, 10(10):2240-2249).
To evaluate the brightness of the TPM image, a TP action cross-section (Φδ) was measured by a conventionally known method.

HeLa cells [6] = assay: Effective TP action cross-section (Φδeff) in probe-labeled cells; assay type: cell-based; details: 750 nm
Protocol: as §3

HeLa cells [7] = assay: Dual-color TPM of cytoplasmic Ca2+ and lysosomal pH, monensin; assay type: cell-based; details: monensin 20 μM
Protocol: To simultaneously monitor changes in lysosomal pH and cytoplasmic [Ca^2+], HeLa cells were co-labeled with a mixture of BCa-1-AM (3 μM) and FHEt-1lyso (1 μM). The cells were washed twice with RB, once with RB containing 5 mM EGTA, and twice with RB containing 0.1 mM EGTA. The TPEF intensity of the cells was measured before and after adding monensin (20 μM, Sigma-Aldrich) to EtOH.
Whether BCa-1 and FHEt-1lyso could be used to simultaneously monitor changes in cytoplasmic [Ca^2+ ] and lysosomal pH during dual-color TPM was evaluated. […] Accordingly, it was confirmed that BCa-1 and FHEt-1lyso could be used to simultaneously monitor changes in cytoplasmic [Ca^2+] and lysosomal pH in live cells during dual-color TPM.

HeLa cells [8] = assay: TPM detection of cytoplasmic Ca2+, histamine-induced oscillation; assay type: cell-based
Protocol: The mixture was cultured (incubated) at 37° C.
Before and after adding histamine dihydrochloride (100 μM, Sigma-Aldrich) to HBSS, Ca^2+ oscillation was evaluated by TPEF intensity monitoring in HeLa cells labeled with BCa-1-AM (2 μM).
Whether BCa-1 may detect Ca^2+ in the cytoplasm was evaluated. […] The increase and decrease of the TPEF intensity were repeated for 800 seconds, which was consistent with the results of previous histamine-induced Ca oscillation studies. Accordingly, it was confirmed that BCa-1 may target the cytoplasm and detect Ca^2+ in the cytoplasm (FIG. 16).

HeLa cells [9] = system: HeLa cells
[10] = Water solubility in aqueous buffer; assay type: physicochemical
Protocol: The water solubility of BCa-1, BCa-2mito, BCa−3°mem, and FHEt-1lyso in an aqueous buffer (pH 7.4) was evaluated using a conventional fluorescence technique (Chem. Asian J. 2015, 10(10):2240-2249).

HeLa cells [11] = assay: TPM lysosome colocalization with BLT-blue; assay type: cell-based
Description: as §2
Whether FHEt-1lyso may detect H^+ in the lysosome was evaluated. […] Therefore, it was confirmed that FHEt-1lyso had the ability to detect H^+ in the lysosome by targeting the lysosome.

[12] = Fluorescence titration of FHEt-1lyso against pH in universal buffer (pKa); assay type: physicochemical; details: for pKa: universal buffer (UB)
Protocol: as §1
Meanwhile, the fluorescence titration of FHEt-1lyso was performed in UB at pH 4 to 11. […] Therefore, it was confirmed that FHEt-1lyso may detect pH in live cells.

[13] = in the absence of excess Ca2+, CB pH 7.2
[14] = in the presence of excess Ca2+ (in parentheses)
[15] = from fluorescence titration curve, CB, read-out: Dissociation constant Kd

Row | Φδmax, maximum TP action cross-section [5] | Kd [3, 15] [nM] | SMILES | Response to Zn2+ and Mn2+ [1] | Response to Mg2+, Fe2+, Cu2+, Co2+ [1] | Selectivity for Ca2+ [1] | Fluorescence quantum yield Φ [2, 13] | Fluorescence quantum yield Φ [2, 14] | FEF, fluorescence enhancement factor (Fmax-Fmin)/Fmin [3] | Φδ values [5] | Φδeff, effective TP action cross-section (HeLa cells [6]) [GM] | further results
1 | – | 2700 | CC(=O)OCOC(=O)CN(CC(=O)OCOC(C)=O)c1ccc(NC(=O)CNc2ccc3cc(-c4nc5cc(OCCC[P+](c6ccccc6)(c6ccccc6)c6ccccc6)ccc5o4)ccc3c2)cc1OCCOc1c(F)cccc1N(CC(=O)OCOC(C)=O)CC(=O)OCOC(C)=O.[Br-] [BCa-2mito-AM] | – | – | – | – | – | – | – | – | Pearson's colocalization coefficient (A) (HeLa cells [9]; with MitoTracker Red): 0.84
2 | 70 10^−50 cm^4s/photon (GM) | 2700 | O=C([O-])CN(CC(=O)[O-])c1ccc(NC(=O)CNc2ccc3cc(-c4nc5cc(OCCC[P+](c6ccccc6)(c6ccccc6)c6ccccc6)ccc5o4)ccc3c2)cc1OCCOc1c(F)cccc1N(CC(=O)[O-])CC(=O)[O-].[Br-].[K+].[K+].[K+].[K+] [BCa-2mito] | moderate | weak | high | 0.049^d | (0.50) | 10 | – | 2000 | TPEF intensity in the cytoplasm on FCCP treatment (HeLa cells [9]; FCCP): increased temporarily in the cytoplasm and then gradually decreased to a baseline; TPEF intensity in the mitochondria on FCCP treatment (HeLa cells [9]; FCCP): rapidly decreased

Second part, the molecule before the results:

Row | SMILES | Φδmax, maximum TP action cross-section [5] | Kd [3, 15] [nM] | Response to Zn2+ and Mn2+ [1] | Response to Mg2+, Fe2+, Cu2+, Co2+ [1] | Selectivity for Ca2+ [1] | Fluorescence quantum yield Φ [2, 13] | Fluorescence quantum yield Φ [2, 14] | FEF, fluorescence enhancement factor (Fmax-Fmin)/Fmin [3] | Φδ values [5] | Φδeff, effective TP action cross-section (HeLa cells [6]) [GM] | further results
3 | O=C([O-])CN(CC(=O)[O-])c1ccc(NC(=O)CNc2ccc3cc(-c4nc5ccccc5o4)ccc3c2)cc1OCC(=O)N1CCOCC1.[K+].[K+] [BCa-3°mem] | 60 10^−50 cm^4s/photon (GM) | – | moderate | weak | high | 0.027^d | (0.72) | 26 | quite low | 4800 | FEF, fluorescence enhancement factor (in parentheses) ([3]; TP process, complexation with Ca2+): (25); Kd ([3]; TP process, read-out: Kd^TP): 95000 nM; TPM images in contrast to BCa-3mem (HeLa cells [4]; HeLa cells, 0.5 μM probe): much darker and blurry
4 | COCCOCCOc1ccc2oc(-c3ccc4cc(NCC(=O)Nc5ccc(N(CC(=O)OCOC(C)=O)CC(=O)OCOC(C)=O)c(OCCOc6ccccc6N(CC(=O)OCOC(C)=O)CC(=O)OCOC(C)=O)c5)ccc4c3)nc2c1 [BCa-1-AM] | – | 180 | – | – | – | – | – | – | – | – | TPEF intensity in the cytoplasm on monensin addition (HeLa cells [7]; 380 to 480 nm): simultaneously increased; Duration of repeated increase and decrease of TPEF intensity (HeLa cells [8]; after histamine): 800 s; TPEF intensity on adding histamine (HeLa cells [8]; histamine 100 μM, cytoplasm): increased and then decreased
5 | CCCCCCOc1ccc2oc(-c3ccc4cc(NCC(=O)Nc5ccc(N(CC(=O)[O-])CC(=O)[O-])c(OCC(=O)N6CCOCC6)c5)ccc4c3)nc2c1.[K+].[K+] [BCa-3mem] | – | – | – | – | – | – | – | – | – | 4800 | TPEF intensity upon addition of Ca2+ (HeLa cells [4]; Ca2+ 2 mM): increased; TPEF intensity during treatment with EGTA (HeLa cells [4]; EGTA 2 mM): decreased; Persistence of plasma membrane signals (HeLa cells [4]; labeled HeLa cells): at least 1 hour; Aqueous solubility [10]: too low
6 | CCN(CC)c1ccc(NC(=O)CNc2ccc3c(c2)C(C)(CC(=O)NCCN(C)C)c2cc(C(C)=O)ccc2-3)cc1 (centres unmarked) [FHEt-1lyso] | 70 10^−50 cm^4s/photon (GM) | – | – | – | – | – | – | – | quite low | 21000 | Fluorescence quantum yield Φ ([2]; at pH 4.3 (in parentheses)): (0.33); TPEF intensity in the lysosome on monensin addition (HeLa cells [7]; 550 to 660 nm): rapidly decreased; Pearson's colocalization coefficient (A) (HeLa cells [11]): 0.86; FEF, fluorescence enhancement factor (in parentheses) ([12]; TP process, protonation, UB): (24); FEF, fluorescence enhancement factor ([12]; one-photon, protonation, UB): 25; pKa ([12]; TP process, UB, read-out: pKa^TP (in parentheses)): 6.6; pKa ([12]; one-photon fluorescence titration, UB pH 4 to 11, read-out: pKa): 6.5
